{"source": "ChEMBL document CHEMBL5390242", "about": "“Design, Synthesis, and Antitumor Efficacy of Substituted 2-Amino[1,2,4]triazolopyrimidines and Related Heterocycles as Dual Inhibitors for Microtubule Polymerization and Janus Kinase 2” (J Med Chem, 2023)", "key": {"[1]": {"assay": "Metabolic stability in mouse liver microsomes assessed as half life incubated for 10 mins in presence of NADPH by LC-MS/MS analysis", "assay_type": "ADME, Microsome"}, "BXPC-3": {"test_system": "BXPC-3", "assay": "Antiproliferative activity against human BXPC-3 cells assessed as cell growth inhibition incubated for 48 hrs by MTT assay", "assay_type": "functional, cell-based", "conditions": "BXPC-3, 48 h"}, "COLO 205": {"test_system": "COLO 205", "assay": "Cytotoxicity against human COLO 205 cells assessed as cell growth inhibition incubated for 48 hrs by MTT assay", "assay_type": "functional, cell-based", "conditions": "COLO 205, 48 h"}, "CWR22R": {"test_system": "CWR22R", "assay": "Cytotoxicity against human 22Rv1 cells assessed as cell growth inhibition incubated for 48 hrs by MTT assay", "assay_type": "functional, cell-based", "conditions": "22Rv1, 48 h"}, "[2]": {"assay": "Cytotoxicity against human ARPE-19 cells assessed as cell growth inhibition incubated for 48 hrs by MTT assay", "assay_type": "toxicity, cell-based"}, "[3]": {"assay": "Cytotoxicity against human L02 cells assessed as cell growth inhibition incubated for 48 hrs by MTT assay", "assay_type": "toxicity, cell-based"}, "A2780/Taxol": {"test_system": "A2780/Taxol", "assay": "Antiproliferative activity against human A2780T cells assessed as cell growth inhibition incubated for 48 hrs by MTT assay", "assay_type": "functional, cell-based"}, "[4]": {"assay": "Antiproliferative activity against human HCT-8/VCR cells assessed as cell growth inhibition incubated for 48 hrs by MTT assay", "assay_type": "functional, cell-based"}, "[5]": {"assay": "Antiproliferative activity against human A549/DDP cells assessed as cell growth inhibition incubated for 48 hrs by MTT assay", "assay_type": "functional, cell-based"}, "[6]": {"assay": "Resistance index, ratio of IC50 for antiproliferative activity against human A2780T cells to IC50 for antiproliferative activity against human A2780 cells", "assay_type": "functional"}, "[7]": {"assay": "Resistance index, ratio of IC50 for antiproliferative activity against human HCT-8/VCR cells to IC50 for antiproliferative activity against human HCT-8 cells", "assay_type": "functional"}, "PC-3": {"test_system": "PC-3", "assay": "Antiproliferative activity against human PC-3 cells assessed as cell growth inhibition incubated for 48 hrs by MTT assay", "assay_type": "functional, cell-based", "conditions": "PC-3, 48 h"}, "[8]": {"assay": "MRT (0 to t) in CD-1 mouse at 1 mg/kg,iv measured upto 24 hrs by HPLC-MS/MS analysis", "assay_type": "ADME, organism-based", "conditions": "in vivo"}, "[9]": {"assay": "Half life in CD-1 mouse at 1 mg/kg,iv measured upto 24 hrs by HPLC-MS/MS analysis", "assay_type": "ADME, organism-based", "conditions": "in vivo"}, "[10]": {"assay": "AUC (0 to t) in CD-1 mouse at 10 mg/kg,ip measured upto 24 hrs by HPLC-MS/MS analysis", "assay_type": "ADME, organism-based", "design": "dose 10 mg/kg, time < 24 hrs, route ip", "conditions": "in vivo"}, "[11]": {"assay": "MRT (0 to t) in CD-1 mouse at 10 mg/kg,ip measured upto 24 hrs by HPLC-MS/MS analysis", "assay_type": "ADME, organism-based", "conditions": "in vivo"}, "[12]": {"assay": "Tmax in CD-1 mouse at 10 mg/kg,ip measured upto 24 hrs by HPLC-MS/MS analysis", "assay_type": "ADME, organism-based", "conditions": "in vivo"}, "[13]": {"assay": "MRT (0 to t) in CD-1 mouse assessed as MRT (0 to t) of metabolite at 10 mg/kg,ip measured upto 24 hrs by HPLC-MS/MS analysis", "assay_type": "ADME, organism-based", "conditions": "in vivo"}, "[14]": {"assay": "Tmax in CD-1 mouse assessed as Tmax of metabolite at 10 mg/kg,ip measured upto 24 hrs by HPLC-MS/MS analysis", "assay_type": "ADME, organism-based", "conditions": "in vivo"}, "[15]": {"assay": "Cmax in CD-1 mouse assessed as Cmax of metabolite at 10 mg/kg,ip measured upto 24 hrs by HPLC-MS/MS analysis", "assay_type": "ADME, organism-based", "design": "time < 24 hrs, dose 10 mg/kg, route ip", "conditions": "in vivo"}, "Tubulin (Sus scrofa)": {"molecular_target": "Tubulin (Sus scrofa) (UniProt P02554+P02550)", "sequence (P02550 whole entry, looked up)": "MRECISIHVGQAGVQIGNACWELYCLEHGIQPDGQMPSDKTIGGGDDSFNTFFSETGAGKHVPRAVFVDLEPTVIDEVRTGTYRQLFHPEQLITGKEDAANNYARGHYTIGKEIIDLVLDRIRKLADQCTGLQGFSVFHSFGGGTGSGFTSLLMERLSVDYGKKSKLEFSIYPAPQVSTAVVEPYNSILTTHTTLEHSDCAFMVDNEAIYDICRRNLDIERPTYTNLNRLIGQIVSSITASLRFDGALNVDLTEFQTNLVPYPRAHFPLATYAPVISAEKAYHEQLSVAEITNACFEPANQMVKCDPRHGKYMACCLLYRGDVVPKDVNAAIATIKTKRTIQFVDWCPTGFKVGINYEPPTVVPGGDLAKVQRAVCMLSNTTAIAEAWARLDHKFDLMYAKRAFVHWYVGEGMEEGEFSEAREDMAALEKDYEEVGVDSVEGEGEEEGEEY", "sequence (P02554 whole entry, looked up)": "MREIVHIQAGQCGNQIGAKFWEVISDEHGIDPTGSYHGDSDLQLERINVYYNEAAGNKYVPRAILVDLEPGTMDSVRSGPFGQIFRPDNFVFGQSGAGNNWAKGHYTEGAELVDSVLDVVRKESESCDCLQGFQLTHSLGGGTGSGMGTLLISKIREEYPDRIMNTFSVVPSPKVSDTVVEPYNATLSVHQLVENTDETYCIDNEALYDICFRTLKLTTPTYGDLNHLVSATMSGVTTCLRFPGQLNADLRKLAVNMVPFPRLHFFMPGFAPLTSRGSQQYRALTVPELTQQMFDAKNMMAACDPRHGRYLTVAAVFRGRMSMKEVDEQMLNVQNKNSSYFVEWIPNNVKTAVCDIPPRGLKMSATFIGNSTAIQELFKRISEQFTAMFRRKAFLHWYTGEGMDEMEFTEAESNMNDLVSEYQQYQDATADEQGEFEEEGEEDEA", "assay": "Inhibition of porcine brain tubulin polymerization at 0.625 to 2.5 uM measured for 30 mins in presence of GTP by microplate reader assay", "assay_type": "tissue-based", "conditions": "dose 0.625-2.5 µM"}, "[16]": {"molecular_target": "Tubulin beta (Homo sapiens) (UniProt P68371+Q9H4B7+Q13509+P04350+Q3ZCM7+P07437+Q13885+Q9BVA1+Q9BUF5+A6NNZ2)", "assay": "Binding affinity to beta-tubulin colchicine binding site in human A549 cells assessed as inhibition of EBI-beta-tubulin adduct band formation at 1 to 25 uM preincubated for 2 hrs followed by EBI addition measured after 1.5 hrs by EBI competition based Western blotting analysis", "assay_type": "cell-based", "conditions": "dose 1-25 µM"}, "[17]": {"molecular_target": "T1, JAK2-STAT3 (Homo sapiens) (UniProt O60674+P40763)", "assay": "Inhibition of JAK2/STAT3 signalling pathway in human A549 cells assessed as downregulation of STAT3 phosphorylation incubated for 24 hrs by Western blotting analysis", "assay_type": "cell-based"}, "[18]": {"molecular_target": "T1, JAK2-STAT3 (Homo sapiens)", "assay": "Inhibition of JAK2/STAT3 signalling pathway in human A549 cells assessed as effect on STAT3 protein level at 5 to 20 uM incubated for 24 hrs by Western blotting analysis", "assay_type": "cell-based", "conditions": "dose 5-20 µM"}, "A549 [19]": {"test_system": "A549", "assay": "Induction of apoptosis in human A549 cells assessed as viable cells at 10 nM incubated for 24 hrs by Annexin V-FITC/PI staining based flow cytometry (reference value: 93 %)", "assay_type": "functional", "conditions": "read-out: Activity"}, "A549 [20]": {"test_system": "A549", "assay": "Induction of apoptosis in human A549 cells assessed as viable cells at 20 nM incubated for 24 hrs by Annexin V-FITC/PI staining based flow cytometry (reference value: 93 %)", "assay_type": "functional", "conditions": "read-out: Activity"}, "A549 [21]": {"test_system": "A549", "assay": "Induction of apoptosis in human A549 cells assessed as late apoptotic cells at 5 nM incubated for 24 hrs by Annexin V-FITC/PI staining based flow cytometry (reference value: 1.72 %)", "assay_type": "functional"}, "A549 [22]": {"test_system": "A549", "assay": "Induction of apoptosis in human A549 cells assessed as necrotic cells at 20 nM incubated for 24 hrs by Annexin V-FITC/PI staining based flow cytometry (reference value: 0.67 %)", "assay_type": "functional"}, "A549 [23]": {"test_system": "A549", "assay": "Induction of apoptosis in human A549 cells assessed as increase in mitochondrial ROS level at 5 to 20 nM incubated for 16 hrs by MitoSOX red dye based fluorescence microscopy", "assay_type": "functional, cell-based", "conditions": "dose 5-20 nM"}, "A549 [24]": {"test_system": "A549", "assay": "Induction of apoptosis in human A549 cells assessed as reduction of mitochondrial membrane potential incubated for 16 hrs by JC-1 staining based flow cytometry analysis", "assay_type": "functional, cell-based"}, "A549 [25]": {"test_system": "A549", "assay": "Induction of mitochondrial membrane potential loss in human A549 cells by measuring red fluorescence at 5 nM incubated for 16 hrs by JC-1 staining based flow cytometry analysis (reference value: 99.3 %)", "assay_type": "functional"}, "A549 [26]": {"test_system": "A549", "assay": "Antitumor activity against human A549 cells xenografted in Balb/c mouse assessed as reduction in tumor weight at 50 mg/kg,ip administration measured after 31 days", "assay_type": "functional", "design": "scale not given: the % may be the effect or the level left", "conditions": "time 31 day"}, "A549 [27]": {"test_system": "A549", "assay": "Antitumor activity against human A549 cells xenografted in Balb/c mouse assessed as increase in tumor necrotic cells at 50 mg/kg,ip administration measured after 31 days by Hematoxylin-eosin staining based microscopy", "assay_type": "functional, organism-based", "conditions": "time 31.0 day"}, "[28]": {"assay": "Toxicity in Balb/c mouse xenografted with human A549 cells assessed as change in body weight at 50 mg/kg,ip administration measured after 31 days", "assay_type": "organism-based", "conditions": "in vivo, 744 h, time 31 day"}, "[29]": {"assay": "Toxicity in Balb/c mouse xenografted with human A549 cells assessed as effect on lung morphology at 50 mg/kg,ip administration measured after 31 days by Hematoxylin-eosin staining based microscopy", "assay_type": "organism-based", "conditions": "in vivo, 744 h, time 31 day"}, "[30]": {"assay": "Toxicity in Balb/c mouse xenografted with human A549 cells assessed as effect on heart morphology at 50 mg/kg,ip administration measured after 31 days by Hematoxylin-eosin staining based microscopy", "assay_type": "organism-based", "conditions": "in vivo, 744 h, time 31 day"}, "NCI/ADR-RES": {"test_system": "NCI/ADR-RES", "assay": "cells", "conditions": "Homo sapiens, 48 h", "description": "Antiproliferative activity against human MCF7ADR cells assessed as cell growth inhibition incubated for 48 hrs by MTT assay"}}, "note": "Calls of active or inactive are those of the source. The rule behind the calls is not given here."}
{"smiles": "COc1cc(-c2nccc3nc(Nc4cccc5[nH]ccc45)nn23)cc(OC)c1OC", "values": [{"measurement": "half-life", "setting": "[1]", "value": 0.362, "unit": "h"}, {"measurement": "IC50", "setting": "BXPC-3", "value": 11, "unit": "nM"}, {"measurement": "IC50", "setting": "COLO 205", "value": 12.1, "unit": "nM"}, {"measurement": "IC50", "setting": "CWR22R", "value": 12.4, "unit": "nM"}, {"measurement": "IC50 at 48 h", "setting": "[2]", "value": 5030, "unit": "nM"}, {"measurement": "IC50 at 48 h", "setting": "[3]", "value": 339, "unit": "nM"}, {"measurement": "IC50", "setting": "A2780/Taxol", "value": 20, "unit": "nM"}, {"measurement": "IC50", "setting": "[4]", "value": 49, "unit": "nM"}, {"measurement": "IC50", "setting": "[5]", "value": 36, "unit": "nM"}, {"measurement": "Ratio IC50", "setting": "[6]", "value": 0.3}, {"measurement": "Ratio IC50", "setting": "[7]", "value": 1.4}, {"measurement": "IC50", "setting": "PC-3", "value": 224, "unit": "nM"}, {"measurement": "MRT last at 24 h", "setting": "[8]", "value": 5.2, "unit": "h"}, {"measurement": "half-life", "setting": "[9]", "value": 6, "unit": "h"}, {"measurement": "AUC(0-t) at 24 h", "setting": "[10]", "value": 559, "unit": "ng·h/mL"}, {"measurement": "MRT last at 24 h", "setting": "[11]", "value": 4.6, "unit": "h"}, {"measurement": "Tmax", "setting": "[12]", "value": 0.5, "unit": "h"}, {"measurement": "MRT(t)", "setting": "[13]", "value": 3.5, "unit": "h"}, {"measurement": "Tmax", "setting": "[14]", "value": 1, "unit": "h"}, {"measurement": "Cmax", "setting": "[15]", "value": 700.2, "unit": "ng/mL"}, {"measurement": "inhibition", "setting": "Tubulin (Sus scrofa)", "value": "Active"}, {"measurement": "Activity", "setting": "[16]", "value": "Active"}, {"measurement": "inhibition", "setting": "[17]", "value": "Dose-Dependent Effect"}, {"measurement": "inhibition", "setting": "[18]", "value": "inactive"}, {"measurement": "viability at 0.01 µM", "setting": "A549 [19]", "value": 55.4, "unit": "%"}, {"measurement": "viability at 0.02 µM", "setting": "A549 [20]", "value": 9.34, "unit": "%"}, {"measurement": "Activity", "setting": "A549 [21]", "value": 1.78, "unit": "%"}, {"measurement": "Activity", "setting": "A549 [22]", "value": 5.26, "unit": "%"}, {"measurement": "Activity", "setting": "A549 [23]", "value": "Active"}, {"measurement": "Activity", "setting": "A549 [24]", "value": "Dose-Dependent Effect"}, {"measurement": "Activity", "setting": "A549 [25]", "value": 89.1, "unit": "%"}, {"measurement": "Activity", "setting": "A549 [26]", "value": 70, "unit": "%"}, {"measurement": "Activity", "setting": "A549 [27]", "value": "Active"}, {"measurement": "Activity", "setting": "[28]", "value": "Non-Toxic"}, {"measurement": "Activity", "setting": "[29]", "value": "Non-Toxic"}, {"measurement": "Activity", "setting": "[30]", "value": "Non-Toxic"}, {"measurement": "IC50", "setting": "NCI/ADR-RES", "value": 64, "unit": "nM"}]}
